According to a melting point compilation (Tetko et al.; mined from patent text by program, amines drawn as free bases though some values may be those of a salt):

| SMILES | melting point [°C] |
| --- | --- |
| C=CCNC(=O)N1CCC1c1ccccc1F (configuration not stated) | 119 to 120 |
| Nc1nc(COCC(F)(F)F)nc2nccnc12 | 145 to 147 |
| CC(C)(C)OC(=O)NC(=O)C(c1ccccc1)c1ccccc1 | 160 to 162 |
| Nc1ncnn1C(=S)NCCCCCO | 108 to 109 |
| COc1ccc(Cc2ccc(C(=O)O)nc2)cc1 | 145 to 147 |
| O=C(ON=C(Br)Br)c1ccc(Cl)cc1 | 93 to 97 |
| O=C(O)C1=CCCCC1C(=O)O (configuration not stated) | 201 to 203 |
| COC(OC)c1cnc(-c2ccccc2)nc1N | 116 to 118 |
| CCCCN=C(O)c1c(Sc2ccccc2)c(Sc2ccccc2)c(Sc2ccccc2)c(Sc2ccccc2)c1C(=O)O | 159 to 160 |
| CC(=O)NC(C)C(=O)Nc1ccc2[nH]cc(C(=O)O)c(=O)c2c1 (configuration not stated) | 196 to 200 |
| CCCCCC(Oc1ccc(C2=CCCCCC2)cc1)C(=O)O (configuration not stated) | 69 to 71 |
| CN1CCNC(=O)C1c1ccc(N)cc1 (configuration not stated) | 153 to 154 |
| N#CC1=C(C#N)Sc2nc3cc(Cl)ccc3nc2S1 | 278 to 280 |
| COC(=O)C1C(=O)CC(=O)CC1C (configuration not stated) | 122 to 123 |
| COc1c(F)cc(F)c(OC)c1-c1ccc(C[C@H](NC(=O)c2c(Cl)cccc2Cl)C(=O)O)cc1 | 201 to 202 |
| Cc1ccc(CCOc2ncnc3c(F)cccc23)cc1 | 72 to 74 |
| N#CCc1cc(Cl)cc(Cl)c1 | 31 to 32 |
| CC1(C)CC(N(C=O)C2CCCCC2)CC(C)(C)N1 | 105 |
| Cc1ccc(N(c2ccc(-c3ccc(N(c4ccccc4)c4cccc(C)c4)cc3)cc2)c2ccc3ccc4cccc5ccc2c3c45)cc1 | 172 to 173 |
| O=P(Cc1ccccc1)(C1CCCCC1)C1CCCCC1 | 147 to 149 |
| CCOC(=O)c1ccc(C(=O)CBr)cc1 | 67 to 68.5 |

| SMILES | melting point [°C] |
| --- | --- |
| Cc1cc(Cl)ccc1NC(=O)NC(=O)C(Cl)CCl (configuration not stated) | 111 to 113 |
| C=CS(=O)(=O)c1c(Cl)c(Cl)nn1C | 66 to 69 |
| CCCCc1nc2c(N)nc3ccccc3c2n1CCCCNC(=O)c1ccccc1 | 174 to 175 |
| CN(C)C=Nc1ccc(I)cc1C#N | 53 to 55 |
| Oc1ccnc(Nc2cccc(Cl)c2)n1 | 250 to 252 |
| O=C(Nc1ccccc1)[NH+]([O-])Cc1ccncc1 (configuration not stated) | 174 |
| CCCCCC(=O)NC(=O)C(c1ccccc1)c1ccccc1 | 87 |
| CC(=O)SCC(Cc1ccc(F)cc1)C(=O)Nc1cccc(C(=O)O)c1 (configuration not stated) | 172 to 174 |
| CN(C)c1ccc(C(=O)c2ccc(O)cc2)cc1 | 199 to 200 |
| Cc1nccn1-c1cc2[nH]c(=O)c(=O)n(O)c2cc1C(F)(F)F | > 300 |
| CCc1c(-c2ccc(OCc3ccccc3)cc2)c2ccc3ccc(CO)c1n32 | 99 to 102 |
| CC(C)(C)OC(=O)N1CC=C(c2ccc(N)cc2F)CC1 | 96 to 98 |
| COC(=O)CCc1ccc(OCC(C)NCC(O)c2ccccc2)cc1 (configuration not stated) | 103 to 104 |
| CCCCc1ccc(CCCCC(NC(C)=O)(C(=O)OCC)C(=O)OCC)cc1 | 60 to 61 |
| O=S(=O)(c1ccccc1)c1ncc(Br)cn1 | 103 |
| CC1=C(OCC(C)C)CC(C)(C)C1=O | 63 |
| c1cc(OCC2CCCCC2)ccc1Cc1nnn[nH]1 | 156 to 158 |
| COC(=O)c1cc(C(=O)O)cc(-n2cccc2)c1 | 178 to 179 |
| COc1ccc(O)c(CNc2cccs2)c1 | 109 to 110 |
| CC(=O)OCCN(C)Cc1cc(C(=O)c2cccs2)cc(C(C)(C)C)c1O | 124 to 126 |
| COc1ccc(-c2ccoc2)c2c1c(CCN(C)C)cn2C | 80 to 81 |

| SMILES | melting point [°C] |
| --- | --- |
| CC(C)N(c1nc(Cl)nc(N2C(C)(C)CC3(CC2(C)C)OCCO3)n1)C(C)C | 179 to 184 |
| COC(=O)c1snc(-c2ccc(C#N)cc2)c1C(=O)OC | 134 to 135 |
| CCCCCCSCC(O)COc1cccc2oc(C(=O)O)cc(=O)c12 (configuration not stated) | 97 to 100 |
| Cn1nc(-c2ccc(F)cc2)c(-c2ccncc2)c1CCCc1ccccc1 | 83 to 87 |
| CCNC(=O)N1CC(Oc2cccc(C(F)(F)F)c2)C1 | 125 to 126 |
| O=CC(=Cc1ccc(OCc2ccc(Cl)cc2)cc1)C(C=O)=Cc1ccc(OCc2ccc(Cl)cc2)cc1 | 208 to 209 |
| NC(=O)c1cc(Cl)c(Cl)cc1C(=O)O | 197 to 201 |
| N#CN=C(Cc1ccccc1F)NC1CCc2ccccc21 (configuration not stated) | 141 to 142 |
| CCOC(=O)C(C(=O)O)=C1SCS1 | 166 to 167 |
| O=C(NCc1ccc(Cl)cc1)c1cn2c3c(cc(CN4CCOCC4)cc3c1=O)OC(CNCc1ccncc1)C2 (configuration not stated) | 164 to 167 |
| O=S1(=O)NCN(C2CC2)c2cccc(Br)c21 | 189 to 191 |
| C#CCNc1nc(N(C2CC(C)(C)N(O)C(C)(C)C2)C2CC(C)(C)N(O)C(C)(C)C2)nc(N(C2CC(C)(C)N(O)C(C)(C)C2)C2CC(C)(C)N(O)C(C)(C)C2)n1 | 249 to 252 |
| CC12CCC3c4ccc(C(=O)O)cc4CCC3C1CCC2C(=O)C1CCCCC1 (configuration not stated) | 280 to 285 |
| CC(=O)Nc1ccc(F)cc1SCC#N | 97 to 100 |
| O=C(O)c1cc(S(=O)(=O)Cl)cc(S(=O)(=O)Cl)c1O | 185 to 187 |
| COC(=O)c1ccc(C(=O)OC)c(Nc2ccccc2)c1 | 85 to 87 |
| CCCCCCCCCCCC1N(C(C)=O)c2ccccc2-c2c([N+](=O)[O-])cnn21 (configuration not stated) | 83 to 85 |
| CC(C)(C)OC(=O)Cn1c2ccccc2c2c(N3CCCC3)nc(N3CCCC3)nc21 | 131 to 133 |
| CC(C)(C)c1cc(C(=O)OCc2ccc(C(=O)OCc3ccccc3)cc2)cc(C(C)(C)C)c1O | 110 to 111 |

Results, then the compound that gave them:

| melting point [°C] | SMILES |
| --- | --- |
| 118 | O=S1(=O)N(CCN2CCN(c3ccc(F)cc3)CC2)c2cccc3c2N1CCC3 |
| 136 to 152 | CC1Cc2cc(C3C(=O)Oc4c3cc(C(C)(C)C)cc4C(C)(C)C)ccc2O1 (configuration not stated) |
| 63 to 66 | COc1cccc2c1OCN(CCc1ccccc1)C2 |
| 145 | O=C(c1cccnc1)c1cc(-c2cccnc2)c(N2CCOCC2)s1 |
| 162 to 165 | O=C(Nc1c(F)cc(F)cc1F)N(Cc1ccc2c(c1)Cc1ccccc1-2)C1CCCCC1 |
| 123 to 126 | O=C1c2ccc([N+](=O)[O-])cc2COc2cc(-n3cnnn3)ccc21 |
| 289 to 291 | COc1cccc2sc(-c3ccc(C(=O)O)cc3)nc12 |
| 228 to 230 | O=C1CCC(N2C(=O)c3ccc([N+](=O)[O-])cc3C2=O)C(=O)N1 (configuration not stated) |
| 135 to 137 | COc1ccc(NC(=O)c2ccc(-c3ccc(-c4noc(C)n4)cc3)cc2)cc1N1CCN(C)CC1 |
| 134 to 136 | CC(=O)N1CCN(c2ccc(Nc3nccc(-c4sc(-c5cccs5)nc4C)n3)cc2)CC1 |
| 175 to 177 | N#Cc1cccc2c1CC(=NN)c1ccccc1S2 |
| > 300 | Cc1cnc2c(=O)[nH]c3ccccc3n12 |
| 315 | N#Cc1ccc2c(c1)[nH]c(=S)n2NC(=O)c1ccc(Cl)c(S(N)(=O)=O)c1 |
| 172 to 175 | CS(=O)(=O)c1ccc(-c2nc3cc(C4CCN(C(=O)OCc5ccccc5)CC4)ccc3o2)c(F)c1 |
| 255 to 258 | O=C(O)c1cc(Cl)cc2cc(-c3ccccc3)oc12 |
| 204 to 206 | CN(C1c2cc(O)ccc2OC(C)(C)C1O)S(C)(=O)=O (configuration not stated) |
| 207 to 209 | O=C1Cc2cc3c(cc2C(c2ccccc2Cl)N1)OCO3 (configuration not stated) |
| 69 to 70 | O=[N+]([O-])c1ccc(C2CCc3c(CCCCCCO)n[nH]c3C2)cc1 (configuration not stated) |
| 121 to 123 | CCN1CC=C(c2ccc(Nc3ncc4ccc(-c5ccccc5N(C)S(C)(=O)=O)n4n3)c(OC)c2)CC1 |
| 233 to 235 | NC(=O)c1c(N)oc2c(-c3ccccc3)cccc2c1=O |
| 200 to 201 | COc1ccc2cnc(Nc3ccc(N4CCCCC4)c(F)c3)nc2c1C1CCCC1 |

| melting point [°C] | SMILES |
| --- | --- |
| 84 to 86 | Clc1ccccc1-c1n[nH]c(SCc2ccccc2)n1 |
| > 290 | Nc1nc2c(c(=O)[nH]1)C(CCc1ccc(C(=O)O)cc1)CN2 (configuration not stated) |
| 155 to 158 | C=CC(=O)NCc1cc([N+](=O)[O-])ccc1C |
| 96 to 98 | O=[N+]([O-])c1ccc(Oc2ccccc2)cc1OCc1ccccc1 |
| 169 | Clc1ccc(-c2csc(-c3cnccc3N3CCOCC3)n2)cc1 |
| 245 to 246 | CCCNC(=O)c1cccc(-c2cc(-c3ccccc3O)nc(NC(=O)c3cccs3)c2C#N)c1 |
| 121 to 122 | CCCN1C(=O)C2(CC)CC(c3ccc([N+](=O)[O-])cc3)(C2)C1=O |
| 186 | O=C(c1ccc(F)cc1)c1ccc(C(=O)c2ccc(F)cc2)s1 |
| 155 to 156 | COC(=S)c1ccc(-c2ccccc2)c(S(C)(=O)=O)c1 |
| 211 to 212 | O=c1[nH]c2ccccc2c2c(CCN3CCN(Cc4ccccc4)CC3)n(-c3ccccc3)nc12 |
| 125 to 127 | CN1C(=O)C(O)(c2ccccc2)c2cccc(Cl)c21 (configuration not stated) |
| 93 to 95 | CCCCc1nc(C(F)(F)F)c(C(=O)OCC)n1Cc1cccc2c1ccn2-c1ccccc1-c1nn[nH]n1 |
| 112 to 113 | COc1ccc([C@H](Sc2cc(Oc3ccc4c(c3)OCO4)ccc2N)[C@@H](O)C(=O)O)cc1 |
| 129 to 135 | CN1C(=O)CC[C@]2(C)c3ccc(-c4ccc(Cl)c(Cl)c4)cc3CC[C@@H]12 |
| 240 to 247 | O=C(NCc1ccc(-c2n[nH]c3c2Cc2ccccc2-3)s1)N1CCOCC1 |
| 198 | COc1cccc(C2=C(C#N)C(c3cccc4nonc34)c3c[nH]nc3N2)c1 (configuration not stated) |
| 248 to 250 | O=C(O)CSc1ccc(-n2cc(C3c4ccccc4C=Cc4ccccc43)c(=S)[nH]c2=O)nn1 |
| 156 to 157 | CN(C)C(=O)c1c(-c2ccc(N(C)C)cc2)ccc2ccccc12 |
| 148 to 149 | NC(=O)C1=NN(c2cccc(COCC3CCCCC3)c2)C(c2ccccc2F)N1 (configuration not stated) |
| 150 to 190 | COc1cc2c(cc1OC)C(NC=O)C(c1ccc3c(c1)OCO3)CC2 (configuration not stated) |
